Experimental data reported in article PMC4186431 (Pharmacology Research & Perspectives, 2013).
Read-outs that look alike come from different tables or passages of the source.

Columns and labels:
human 5-HT7(a) receptor [1] = target: T1, human 5-HT7(a) receptor (Homo sapiens, UniProt P34969); assay: Membrane homogenate [^3H]-SB-269970 radioligand binding; details: for Hill slope nH (membrane homogenate radioligand binding): [^3H]-SB-269970 competition, best fit model (nH = 1 or variable slope)
Description: Cell membrane homogenate was prepared as previously described (Varin et al. [2010]). […] After incubation, the reactions were stopped by filtration in a harvester apparatus through GF/B filters pretreated with 0.25% (w/v) poly(ethyleneimine) solution. Filters were counted in a LS-6000LL beta counter (Beckman Coulter, Inc., Fullerton, CA, USA).
(§1) The data were analyzed using GraphPad Prism software v4.0 (GraphPad Software Inc., San Diego, CA). Receptor density (Bmax) and the dissociation constant (Kd) of the radioligand were determined by nonlinear regression curve fitting of saturation binding curves to a one-site binding (hyperbola) model. […] The IC50 values were determined by nonlinear regression curve fitting to sigmoidal dose–response or sigmoidal dose–response (variable slope) models, as indicated. […] Results are expressed as the mean values ± SEM from the number of independent experiments indicated. Prediction of log of octanol/water partition coefficient (xlog P) values were retrieved from ZINC database (http://zinc.docking.org/) (Irwin et al. [2012]).

human 5-HT7(a) receptor [2] = target: T1, human 5-HT7(a) receptor; assay: Whole-cell [^3H]-SB-269970 radioligand binding (preincubation/washout experiments); details: for inhibition at 10 µM: read-out: Inhibition of specific binding of [^3H]-SB-269970 after preincubation and washout, 10 μmol/L, 30 min at 37°C, time t = 0 after washout
Description: After incubation for 30 min at 37°C, the assay was stopped, as previously described.
as §1

human 5-HT7(a) receptor [3] = target: T1, human 5-HT7(a) receptor; assay: cAMP assay, agonist effects in HEK-hu5-HT7 cells; assay type: cell-based; details: 100 pmol/L to 10 μmol/L, data not shown
Description: (§2) cAMP levels were quantified using the homogeneous time-resolved fluorescence (HTRF)-based cAMP dynamic kit (Cisbio, Bioassays, Codolet, France). […] In all cases, basal cAMP levels were determined in control wells in the absence of agonist. The effects of the compounds on forskolin-stimulated adenylate cyclase activity were evaluated either at a single concentration (parental HEK293 cells) or by using concentration–response curves (HEK-hu5-HT7 cells). Cells were incubated in the absence (control) or presence of the compounds, at the concentrations indicated, in assay buffer for 15 min at 37°C prior to the addition of forskolin and further incubation for 15 min. Basal cAMP levels were determined in control wells in the absence of forskolin. After proceeding with the subsequent assay steps according to the manufacturer's protocol, the fluorescence emission intensity ratio at 665/620 nm wavelength was measured in an Ultra Evolution 384 microplate reader (TECAN, Männedorf, Switzerland).

[4] = tested on: forskolin-stimulated adenylate cyclase activity in HEK-hu5-HT7 cells; assay: Forskolin-stimulated cAMP production in the presence of the compounds, HEK-hu5-HT7 cells; assay type: cell-based; details: Homo sapiens; 10 μmol/L forskolin, continuous presence of the compounds; read-out: IC50, inhibition of forskolin-stimulated adenylate cyclase activity
Description: as §2
The data were analyzed using GraphPad Prism software v4.0 (GraphPad Software Inc., San Diego, CA). Receptor density (Bmax) and the dissociation constant (Kd) of the radioligand were determined by nonlinear regression curve fitting of saturation binding curves to a one-site binding (hyperbola) model. […] Results are expressed as the mean values ± SEM from the number of independent experiments indicated. […]

[5] = tested on: forskolin-stimulated adenylate cyclase activity in parental HEK293 cells; assay: Forskolin-stimulated cAMP production in parental HEK293 cells; assay type: cell-based, human; details: 1 μmol/L or 10 μmol/L compound, parental HEK293 cells (Fig. 7 inset)
Description: as §2

[6] = tested on: forskolin-stimulated adenylate cyclase activity in HEK-hu5-HT7 cells; assay: Forskolin-stimulated cAMP production, preincubation/washout experiments, HEK-hu5-HT7 cells; assay type: cell-based; details: Homo sapiens; 30 min preincubation, washout, then 10 μmol/L forskolin 15 min, n = 3; read-out: IC50, irrev, forskolin-stimulated adenylate cyclase activity
Description: (§3) After proceeding with the subsequent assay steps according to the manufacturer's protocol, fluorescence was measured as previously described.
(§4) The data were analyzed using GraphPad Prism software v4.0 (GraphPad Software Inc., San Diego, CA). Receptor density (Bmax) and the dissociation constant (Kd) of the radioligand were determined by nonlinear regression curve fitting of saturation binding curves to a one-site binding (hyperbola) model. […] The IC50 values were determined by nonlinear regression curve fitting to sigmoidal dose–response or sigmoidal dose–response (variable slope) models, as indicated. […] Results are expressed as the mean values ± SEM from the number of independent experiments indicated.

rat 5-HT7 receptors = target: rat 5-HT7 receptors; parameters: method as in Leopoldo et al. [2008]; Hedlund et al. [2010]; details: cloned in cell lines; ref Leopoldo et al. [2008]; Hedlund et al. [2010]; cited from earlier work
5-HT1A [7] = details: ref Leopoldo et al. [2008], cited from earlier work
D2 = target: D2; parameters: method as in Leopoldo et al. [2008]; details: ref Leopoldo et al. [2008]; cited from earlier work
[8] = tested on: isolated guinea pig ileum; parameters: method as in Leopoldo et al. [2008]; details: ex vivo; ref Leopoldo et al. [2008]; cited from earlier work
[9] = tested on: wild type and 5-HT7 knock-out mice; parameters: method as in Hedlund et al. [2010]; details: ref Hedlund et al. [2010]; cited from earlier work
mouse hippocampal slices = tested on: mouse hippocampal slices; parameters: method as in Costa et al. [2012]; details: ref Costa et al. [2012]; cited from earlier work
mice = tested on: mice; parameters: method as in Adriani et al. [2012]; details: ref Adriani et al. [2012]; cited from earlier work
[10] = tested on: rat trigeminal nucleus caudalis; parameters: method as in Martínez-García et al. [2011]; details: ref Martínez-García et al. [2011]; cited from earlier work
[11] = parameters: method as in Hedlund et al. [2010]; details: mice; ref Hedlund et al. [2010]; cited from earlier work
human 5-HT7(a) receptor [12] = target: T1, human 5-HT7(a) receptor; assay: Whole-cell [^3H]-SB-269970 radioligand binding (in the presence of the compounds)
Description: as §1

5-HT7 receptors = tested on: 5-HT7 receptors; parameters: method as in Lacivita et al. [2012]; details: ref Lacivita et al. [2012]; cited from earlier work
human 5-HT7(a) receptor [13] = target: T1, human 5-HT7(a) receptor; assay: 5-CT-stimulated cAMP assay in the presence of the compounds (antagonist curves, Schild analysis), HEK-hu5-HT7 cells; assay type: cell-based
Description: as §2, with “forskolin.” for “forskolin. After proceeding with the subsequent assay steps according to the manufacturer's protocol, the fluorescence emission intensity ratio at 665/620 nm wavelength was measured in an Ultra Evolution 384 microplate reader (TECAN, Männedorf, Switzerland).”
as §4

human 5-HT7(a) receptor [14] = target: T1, human 5-HT7(a) receptor; assay: 5-CT-stimulated cAMP assay, preincubation/washout experiments, HEK-hu5-HT7 cells; assay type: cell-based; details: read-out: IC50, irrev, 5-CT-stimulated cAMP production
Description: as §3, §4

human 5-HT7 receptors [15] = target: T2, human 5-HT7 receptors (Homo sapiens, UniProt P34969); assay: [^3H]-LSD binding in membrane homogenates of HEK-hu5-HT7 cells
5-HT1A [16] = assay: Literature affinity for 5-HT1A receptors; assay type: binding; details: reported 5-HT1A affinity versus 5-HT7 affinity of this study; ref Leopoldo et al. [2008]
human 5-HT7 receptors [17] = target: T2, human 5-HT7 receptors; details: estimated from experiments with behavior not compatible with classical competitive binding; ref Leopoldo et al. [2008]; cited from earlier work

T1 sequence (P34969 1-445 isoform P34969-2): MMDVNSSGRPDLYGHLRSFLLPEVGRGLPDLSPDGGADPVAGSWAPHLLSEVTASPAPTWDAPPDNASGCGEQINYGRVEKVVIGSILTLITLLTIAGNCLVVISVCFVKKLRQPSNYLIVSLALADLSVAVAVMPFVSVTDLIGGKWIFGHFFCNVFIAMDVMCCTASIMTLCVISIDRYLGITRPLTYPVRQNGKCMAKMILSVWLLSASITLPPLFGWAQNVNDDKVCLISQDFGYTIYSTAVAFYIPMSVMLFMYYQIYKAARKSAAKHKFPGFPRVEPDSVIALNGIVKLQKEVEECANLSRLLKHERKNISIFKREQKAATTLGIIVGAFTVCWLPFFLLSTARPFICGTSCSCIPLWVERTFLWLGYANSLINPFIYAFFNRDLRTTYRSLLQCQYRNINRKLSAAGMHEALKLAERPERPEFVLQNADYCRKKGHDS
T2 sequence (P34969 1-445 isoform P34969-2): as above

N#Cc1ccc(CNC(=O)CCCCCN2CCN(c3ccccc3-c3ccccc3)CC2)cc1 [LP-211, N-(4-cyanophenylmethyl)-4-(2-diphenyl)-1-piperazinehexanamide]
Hill slope nH (membrane homogenate radioligand binding) (human 5-HT7(a) receptor [1]): 1
inhibition at 10 µM (human 5-HT7(a) receptor [2]): 95.03 ± 0.47%
Agonist effect on cAMP levels (human 5-HT7(a) receptor [3]): did not elicit any detectable increase in cAMP levels
IC50 [4]: 60.71 ± 0.48 nM
Effect on forskolin-stimulated cAMP production in the parental cell line [5]: no effect
IC50 [6]: 13.9 ± 3.93 nM
Ki (rat 5-HT7 receptors): 0.58 nM
Ki (5-HT1A [7]; Hedlund et al. [2010]): 188 to 379 nM
Ki (D2): 142 nM
Effect on substance P-induced contraction in isolated guinea pig ileum [8]: elicited relaxation of substance P-induced contraction
Effect on body temperature in wild type and 5-HT7 knock-out mice [9]: induced hypothermia in wild type but not in 5-HT7 knock-out mice
Effect on long-term synaptic depression induced by metabotropic glutamate receptors (mouse hippocampal slices): reverted long-term synaptic depression
Behavioural effect in mice (anxiety) (mice): antianxiety-like effects
Effect on capsaicin-induced increase in Fos-like immunoreactivity [10]: able to modulate the capsaicin-induced increase
Metabolism in disposition studies [11]: undergoes N-dealkylation to RA-7

c1ccc(-c2ccccc2N2CCNCC2)cc1 [RA-7, 1-(2-biphenyl)piperazine]
remaining activity at 10 µM (human 5-HT7(a) receptor [12]; read-out: [^3H]-SB-269970 specific binding (percent of control), competitive whole-cell binding, 10 μmol/L, n = 3): 0.64 ± 0.44%
Inhibition of specific binding of [^3H]-SB-269970 after preincubation and washout (human 5-HT7(a) receptor [2]; 10 μmol/L, 30 min at 37°C, time t = 0 after washout): ~50%
Duration of inhibition of [^3H]-SB-269970 binding after compound removal (human 5-HT7(a) receptor [2]; preincubation with 10 μmol/L, recovery followed at 0, 1, 3, 6 and 24 h): at least 24 h
inhibition at 10 µM (human 5-HT7(a) receptor [2]): 54.8 ± 5.15%
Action at 5-HT7 receptors in HeLa cells (5-HT7 receptors): high-affinity receptor 5-HT7 antagonist

O=C(CCCCCN1CCN(c2ccccc2-c2ccccc2)CC1)NCc1ccccc1 [MEL-9, N-benzyl-4-(2-diphenyl)-1-piperazinehexanamide]
5-HT7 affinity (membrane homogenate radioligand binding) pKi (human 5-HT7(a) receptor [1]; 2 nmol/L [^3H]-SB-269970, HEK-hu5-HT7 membrane homogenate): 7.78
Ki (human 5-HT7(a) receptor [1]; 2 nmol/L [^3H]-SB-269970, HEK-hu5-HT7 membrane homogenate, 60 min 37°C, read-out: 5-HT7 affinity (membrane homogenate radioligand binding) Ki): 16.6 ± 0.99 nM
Hill slope nH (membrane homogenate radioligand binding) (human 5-HT7(a) receptor [1]): 1.34 ± 0.14
Ki (human 5-HT7(a) receptor [12]; read-out: 5-HT7 affinity (whole-cell radioligand binding) Ki): 13.8 ± 0.24 nM
IC50 (human 5-HT7(a) receptor [2]; 30 min preincubation, washout, then 2 nmol/L radioligand): 22.4 ± 7.63 nM
inhibition at 10 µM (human 5-HT7(a) receptor [2]): 97.2 ± 0.23%
Agonist effect on cAMP levels (human 5-HT7(a) receptor [3]): did not elicit any detectable increase in cAMP levels
IC50 (human 5-HT7(a) receptor [13]): 27.8 ± 6.72 nM
IC50 (human 5-HT7(a) receptor [14]): 41.8 ± 18 nM
IC50 [4]: 19.3 ± 8.18 nM
Effect on forskolin-stimulated cAMP production in the parental cell line [5]: no effect
IC50 [6]: 11.2 ± 3.25 nM
nH, displacement of [^3H]-LSD binding (human 5-HT7 receptors [15]; data not shown): 1.11 ± 0.19
Ki (human 5-HT7 receptors [15]; n = 3, data not shown, read-out: Ki, displacement of [^3H]-LSD binding): 37.9 ± 11.3 nM
Fold lower affinity for 5-HT1A receptors than for 5-HT7 receptors (5-HT1A [16]): 9.7 fold
Ki (human 5-HT7 receptors [17]): 0.8 nM
Ki (5-HT1A [7]): 503 nM
Ki (D2): 161 nM
